Assay results: patent publication US4428956A, “4-Hydroxy-5-substituted-3-(2H)-isothiazolone-1,1-dioxide derivatives useful in treating urinary tract calcium oxalate lithiasis” (Merck & Co., Inc., priority 1980, dated 1984)

Target: T1, pig liver glycolate oxidase (Sus scrofa, UniProt I3LVF1)
T1 construct: The enzyme was pig liver glycolate oxidase; from tissue; host or cells: pig liver
T1 sequence (I3LVF1 1-370): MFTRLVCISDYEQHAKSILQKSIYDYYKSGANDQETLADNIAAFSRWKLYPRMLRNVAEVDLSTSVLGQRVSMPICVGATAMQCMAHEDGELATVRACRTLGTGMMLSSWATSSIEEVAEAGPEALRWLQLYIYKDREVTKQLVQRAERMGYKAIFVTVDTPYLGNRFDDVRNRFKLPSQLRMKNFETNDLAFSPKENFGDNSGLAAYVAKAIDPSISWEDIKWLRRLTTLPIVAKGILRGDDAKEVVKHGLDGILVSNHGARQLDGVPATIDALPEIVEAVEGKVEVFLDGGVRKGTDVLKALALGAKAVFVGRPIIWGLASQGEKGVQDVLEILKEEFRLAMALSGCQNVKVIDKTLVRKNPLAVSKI
Experiment: Glycolate Oxidase Enzyme Inhibition
Assay type: biochemical
Details: 25° C., 0.10 M phosphate buffer, pH 7.0, 3 mM EDTA; 5×10^-5 M sodium 2,6-dichlorophenol-indophenol, 2×10^-4 M sodium glycolate; initial rates 1 to 3 min., 600 nm
Method: The usefulness of the compounds of the present invention in treating urinary tract, especially renal, calcium oxalate lithiasis, was shown by the ability of those compounds to inhibit the glycolate oxidase enzyme. […] The activity of the enzyme, in turn, was measured by following the rate of reduction of sodium 2,6-dichlorophenol-indophenol by sodium glycolate in the presence of the enzyme. The enzyme was pig liver glycolate oxidase. The reaction was followed spectrophotometrically at 600 nm. The assay was conducted at 25° C. in a 0.10 M phosphate buffer, pH 7.0, containing 3 mM EDTA. Initial substrate concentrations were 5×10^-5 M of sodium 2,6-dichlorophenol-indophenol and 2×10^-4 M of sodium glycolate. Reactions were initiated by the addition of enzyme. Initial rates during the period from 1 to 3 min. after the addition of enzyme were recorded on a Beckman Acta M-VI spectrophotometer. One control was run simultaneously with three test reactions, and all initial rates were adjusted to a common control rate. For further details of this procedure, see Randall et al., J. Med. Chem. 22, 6, 612 (1979).

## O=C1NS(=O)(=O)C(c2ccccc2)=C1O [4-Hydroxy-5-phenyl-3(2H)-isothiazolone-1,1-dioxide]
  IC50: 2100 nM
